# Literature values as cited in patent US7572596B2, “Modulation of the neuroendoctrine system as a therapy for motor neuron disease” (University of Pittsburgh of the Commonwealth System of …, priority 2004, dated 2009).
# What was measured:
# [1] = system: human ALS patients; conditions: 2003; for efficacy in human ALS patients: Groeneveld, Desnuelle, 2001
# [2] = system: SOD1 transgenic mice; conditions: Groeneveld, 2003, Desnuelle, 2001
# [3] = system: transgenic model for multiple sclerosis; conditions: direct administration; Fernandez et al, 2004
SMILES,efficacy in human ALS patients [1],efficacy in relieving the symptoms of ALS [2],"life expectancy of ALS patients ([1]; ALS patients, Miller)",axonal pathology [3],remyelination [3]
CN(CC(=O)O)C(=N)N [Creatine],minimal efficacy,some efficacy,,,
Cc1c(C)c2c(c(C)c1O)CC[C@@](C)(CCC[C@H](C)CCC[C@H](C)CCCC(C)C)O2 [a-tocopherol],minimal efficacy,some efficacy,,,
Nc1nc2ccc(OC(F)(F)F)cc2s1 [Riluzole],,,extends life expectancy by only a few months,,
NC(Cc1cc(I)c(Oc2cc(I)c(O)c(I)c2)c(I)c1)C(=O)O (stereo not shown) [T4],,,,neuroprotective for axonal pathology,enhances remyelination
